In US10787446B2 (GENENTECH, INC., priority 2015, dated 2020):

Molecular target: T1, hNav1.7 and the β1 subunit (Homo sapiens, UniProt Q15858)
T1 construct: expressed in transfected cells
Test: Tritiated compound competitive binding to membranes from cells heterologously expressing hNav1.7 and the β1 subunit (LBA)
Settings: competition with 100 pM [3H]compound, 18 h, room temperature; IC50 by 4 parameter logistic model
In short: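 Membranes were incubated 18 h at room temperature with 100 pM [3H]-labelled NaV1.7 inhibitor and increasing test compound in 100 mM NaCl, 20 mM Tris HCl, pH 7.4. Bound radioligand was filtered on PEI-soaked GF/C, washed, and counted by scintillation. IC50 from a 4-parameter logistic fit of % inhibition.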

T1 sequence (Q15858 whole entry): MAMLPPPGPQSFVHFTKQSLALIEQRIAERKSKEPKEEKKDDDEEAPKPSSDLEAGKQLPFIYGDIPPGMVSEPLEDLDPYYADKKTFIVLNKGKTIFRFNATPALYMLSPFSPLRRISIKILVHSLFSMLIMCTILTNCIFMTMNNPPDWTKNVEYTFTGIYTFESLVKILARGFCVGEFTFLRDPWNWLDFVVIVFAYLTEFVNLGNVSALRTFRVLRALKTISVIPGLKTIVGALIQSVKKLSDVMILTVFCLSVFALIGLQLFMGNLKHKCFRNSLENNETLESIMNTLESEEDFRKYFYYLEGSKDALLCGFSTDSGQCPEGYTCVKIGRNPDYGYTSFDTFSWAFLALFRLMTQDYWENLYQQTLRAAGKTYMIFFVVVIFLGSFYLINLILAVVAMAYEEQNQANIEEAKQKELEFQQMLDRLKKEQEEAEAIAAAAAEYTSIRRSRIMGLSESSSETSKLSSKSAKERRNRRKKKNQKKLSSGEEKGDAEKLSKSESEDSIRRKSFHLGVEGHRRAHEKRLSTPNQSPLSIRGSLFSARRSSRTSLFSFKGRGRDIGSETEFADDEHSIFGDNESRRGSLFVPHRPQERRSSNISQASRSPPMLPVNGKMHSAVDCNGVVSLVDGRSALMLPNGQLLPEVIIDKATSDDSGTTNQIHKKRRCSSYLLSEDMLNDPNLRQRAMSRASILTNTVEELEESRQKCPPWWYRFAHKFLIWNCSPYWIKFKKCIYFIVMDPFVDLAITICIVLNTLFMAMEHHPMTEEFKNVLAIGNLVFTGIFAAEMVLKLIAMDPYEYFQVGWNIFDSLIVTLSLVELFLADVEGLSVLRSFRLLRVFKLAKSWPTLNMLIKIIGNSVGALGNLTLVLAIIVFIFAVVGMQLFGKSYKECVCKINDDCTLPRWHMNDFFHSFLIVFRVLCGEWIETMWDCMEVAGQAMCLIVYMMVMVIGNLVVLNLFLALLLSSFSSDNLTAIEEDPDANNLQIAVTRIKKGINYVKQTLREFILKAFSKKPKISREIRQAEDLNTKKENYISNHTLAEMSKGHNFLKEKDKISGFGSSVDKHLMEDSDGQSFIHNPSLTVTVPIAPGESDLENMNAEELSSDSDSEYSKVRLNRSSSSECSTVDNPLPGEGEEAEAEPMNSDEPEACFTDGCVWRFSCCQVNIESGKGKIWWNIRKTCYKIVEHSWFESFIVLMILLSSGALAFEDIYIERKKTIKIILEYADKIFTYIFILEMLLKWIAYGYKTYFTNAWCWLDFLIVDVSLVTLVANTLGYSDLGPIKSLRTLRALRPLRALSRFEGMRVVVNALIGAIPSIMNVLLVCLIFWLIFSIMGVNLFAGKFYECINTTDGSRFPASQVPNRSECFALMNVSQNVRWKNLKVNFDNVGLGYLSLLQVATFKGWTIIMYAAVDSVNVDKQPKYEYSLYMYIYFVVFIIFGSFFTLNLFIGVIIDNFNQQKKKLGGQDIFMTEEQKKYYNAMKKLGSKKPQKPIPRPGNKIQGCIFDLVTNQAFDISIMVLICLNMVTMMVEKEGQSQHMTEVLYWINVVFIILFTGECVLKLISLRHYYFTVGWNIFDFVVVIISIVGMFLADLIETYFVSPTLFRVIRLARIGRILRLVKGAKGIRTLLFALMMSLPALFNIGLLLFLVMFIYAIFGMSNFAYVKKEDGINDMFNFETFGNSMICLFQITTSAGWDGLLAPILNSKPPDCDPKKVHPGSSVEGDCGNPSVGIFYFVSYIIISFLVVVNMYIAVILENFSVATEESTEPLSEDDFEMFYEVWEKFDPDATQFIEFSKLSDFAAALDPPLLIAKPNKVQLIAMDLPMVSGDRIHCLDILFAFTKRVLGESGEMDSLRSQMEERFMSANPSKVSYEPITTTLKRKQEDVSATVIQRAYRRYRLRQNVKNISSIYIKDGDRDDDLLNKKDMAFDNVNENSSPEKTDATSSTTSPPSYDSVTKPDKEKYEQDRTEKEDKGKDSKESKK
T1 sequence (Q07699 19-218 partner): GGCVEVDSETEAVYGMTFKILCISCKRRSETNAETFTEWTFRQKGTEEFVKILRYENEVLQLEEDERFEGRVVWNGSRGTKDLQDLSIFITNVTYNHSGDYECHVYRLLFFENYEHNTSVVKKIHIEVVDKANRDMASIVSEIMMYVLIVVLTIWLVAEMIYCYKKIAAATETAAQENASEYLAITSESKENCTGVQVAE

Nav1.7 (LBA) [µM]	Structure (SMILES)
1.44	O=S(=O)(Nc1ncns1)c1ccc2c(c1)OCC[C@@H]2N1CCC(C(F)F)CC1 [Example 150, (S)-4-(4-(difluoromethyl)piperidin-1-yl)-N-(1,2,4-thiadiazol-5-yl)chromane-7-sulfonamide]
0.223	CN1CCN([C@H]2CCOc3cc(S(=O)(=O)Nc4ncns4)ccc32)[C@H](c2ccc(F)cc2)C1 [Example 221, (S)-4-((R)-2-(4-fluorophenyl)-4-methylpiperazin-1-yl)-N-(1,2,4-thiadiazol-5-yl)chromane-7-sulfonamide]
8.6	CC1(C#N)CCN([C@H]2CCOc3cc(S(=O)(=O)Nc4ncns4)ccc32)CC1 [Example 149, (S)-4-(4-cyano-4-methylpiperidin-1-yl)-N-(1,2,4-thiadiazol-5-yl)chromane-7-sulfonamide]
0.0271	CC(C)(O)[C@H]1CCN([C@@H]2CCOc3cc(S(=O)(=O)Nc4ncns4)ccc32)[C@@H](c2ccc(F)cc2)C1 (single isomer, unassigned) [Example 135]
0.442	Cn1nccc1[C@H]1C[C@@H](C(F)(F)F)CCN1[C@@H]1CCOc2cc(S(=O)(=O)Nc3nccs3)c(F)cc21 [Example 160]
0.18	Cn1nccc1[C@@H]1C[C@H](C(F)(F)F)CCN1[C@@H]1CCOc2cc(S(=O)(=O)Nc3nccs3)c(F)cc21 [Example 159]
0.00212	CS(=O)(=O)[C@@H]1CCN([C@H]2CCOc3cc(S(=O)(=O)Nc4nccs4)c(F)cc32)[C@H](c2ccc(F)cc2)C1 [Example 166, (S)-6-fluoro-4-((2S,4R)-2-(4-fluorophenyl)-4-(methylsulfonyl)piperidin-1-yl)-N-(thiazol-2-yl)chroman-7-sulfonamide]
0.249	O=S(=O)(Nc1ncns1)c1ccc2c(c1)C(F)(F)CC[C@@H]2N1CCCC[C@H]1c1cccnc1 (single isomer, unassigned) [Example 227]
0.0494	O=S(=O)(Nc1ncns1)c1ccc2c(c1)OCC[C@H]2N1CCN(CC(F)(F)F)C[C@H]1c1ccc(F)cc1 [Example 220, (R)-4-((R)-2-(4-fluorophenyl)-4-(2,2,2-trifluoroethyl)piperazin-1-yl)-N-(1,2,4-thiadiazol-5-yl)chromane-7-sulfonamide]
0.000515	Nc1cccc([C@@H]2C[C@H](C(F)(F)F)CCN2[C@H]2CCOc3cc(S(=O)(=O)Nc4nccs4)c(F)cc32)n1 [Example 206, (S)-4-((2S,4R)-2-(6-aminopyridin-2-yl)-4-(trifluoromethyl)piperidin-1-yl)-6-fluoro-N-(thiazol-2-yl)chroman-7-sulfonamide]
0.00851	O=S(=O)(Nc1ncns1)c1ccc2c(c1)OCC[C@@H]2N1CCC(F)(F)C[C@@H]1c1ccc(F)cc1 (single isomer, unassigned) [Example 131]
0.376	CN(Cc1ccccc1)[C@H]1CCOc2cc(S(=O)(=O)Nc3ncns3)ccc21 [Example 120, (S)-4-(benzyl(methyl)amino)-N-(1,2,4-thiadiazol-5-yl)chroman-7-sulfonamide]
3.51	O=S(=O)(Nc1ncns1)c1ccc2c(c1)OCC[C@@H]2N1CCCC[C@H]1CCO (single isomer, unassigned) [Example 151]
3.31	O=S(=O)(Nc1ncns1)c1ccc2c(c1)OCC[C@@H]2N1CCCC[C@@H]1CCO (single isomer, unassigned) [Example 152]
0.0035	CC(C)(O)[C@@H]1CCN([C@H]2CCOc3cc(S(=O)(=O)Nc4ncns4)ccc32)[C@H](c2ccc(F)cc2)C1 (single isomer, unassigned) [Example 138]
2.028	O=S(=O)(Nc1ncns1)c1cc2c(cc1F)[C@H](N1CC[C@@](O)(C(F)(F)F)C[C@H]1c1ccc(F)cc1)CCO2 [Example 171, (R)-6-fluoro-4-((2S,4S)-2-(4-fluorophenyl)-4-hydroxy-4-(trifluoromethyl)piperidin-1-yl)-N-(1,2,4-thiadiazol-5-yl)chroman-7-sulfonamide]
0.351	O=S(=O)(Nc1nccs1)c1cc2c(cc1F)[C@H](N1CC[C@@H](C(F)(F)F)C[C@H]1c1ccc(F)c(F)c1)CCO2 [Example 197, (R)-4-((2S,4R)-2-(3,4-difluorophenyl)-4-(trifluoromethyl)piperidin-1-yl)-6-fluoro-N-(thiazol-2-yl)chroman-7-sulfonamide]
0.00883	CC(C)[C@@H]1CCN([C@H]2CCOc3cc(S(=O)(=O)Nc4ncns4)ccc32)[C@H](c2ccccc2)C1 (single isomer, unassigned) [Example 127]
0.00584	N#C[C@@H]1CCN([C@H]2CCOc3cc(S(=O)(=O)Nc4ncns4)ccc32)[C@H](c2ccc(F)cc2)C1 [Example 177, (S)-4-((2S,4R)-4-cyano-2-(4-fluorophenyl)piperidin-1-yl)-N-(1,2,4-thiadiazol-5-yl)chroman-7-sulfonamide]
0.0181	N#Cc1cc(S(=O)(=O)Nc2ncns2)ccc1CN1CC[C@@H](C(F)(F)F)C[C@H]1c1ccccc1 [Example 119, 3-Cyano-4-(((2S,4R)-2-phenyl-4-(trifluoromethyl)piperidin-1-yl)methyl)-N-(1,2,4-thiadiazol-5-yl)benzenesulfonamide]
0.486	O=S(=O)(Nc1ncns1)c1ccc2c(c1)OCC[C@H]2N1CCC(F)(F)C[C@@H]1c1ccccc1 (single isomer, unassigned) [Example 141]

The next lines start with the molecule.

Structure (SMILES)	Nav1.7 (LBA) [µM]
O=S(=O)(Nc1ncns1)c1ccc2c(c1)OCC[C@@H]2N1CC[C@@H](C(F)(F)F)C[C@H]1c1ccc(F)c(F)c1 [Example 106, (S)-4-((2S,4R)-2-(3,4-difluorophenyl)-4-(trifluoromethyl)piperidin-1-yl)-N-(1,2,4-thiadiazol-5-yl)chroman-7-sulfonamide]	0.0016
O=S(=O)(Nc1ncns1)c1ccc2c(c1)OCC[C@H]2N1CCN(CC(F)(F)F)C[C@H]1c1ccccc1 (single isomer, unassigned) [Example 83]	0.0128
O=S(=O)(Nc1nccs1)c1ccc2c(c1)OCC[C@@H]2N1CCCC[C@H]1c1ccccc1 (single isomer, unassigned) [Example 102]	0.072
C[C@H](c1cc(F)c(S(=O)(=O)Nc2ncns2)cc1F)N1CCCC[C@@H]1c1ccccc1 (single isomer, unassigned) [Example 16]	3.65
O=S(=O)(Nc1ncns1)c1ccc2c(c1)OCC[C@H]2N1CCC[C@H]1c1ccccc1 (single isomer, unassigned) [Example 40]	0.798
O=S(=O)(Nc1ncns1)c1cc(F)c(CN2CC[C@H](OC(F)(F)F)C[C@@H]2c2ccccc2)cc1F (single isomer, unassigned) [Example 35]	0.0786
O=S(=O)(Nc1ncccn1)c1cc2c(cc1F)[C@@H](N1CC[C@@H](C(F)(F)F)C[C@H]1c1ccc(F)cc1)CCO2 (single isomer, unassigned) [Example 97]	0.0217
O=S(=O)(Nc1nccs1)c1cc2c(cc1F)[C@H](N1CCCC[C@H]1c1ccccc1)CCO2 (single isomer, unassigned) [Example 91]	0.109
O=S(=O)(Nc1ncns1)c1ccc2c(c1)OCC[C@@H]2N1CCCC[C@H]1c1ccccc1 (single isomer, unassigned) [Example 37]	0.0254
O=S(=O)(Nc1ncns1)c1ccc2c(c1)OCC[C@@H]2N1CCCC[C@H]1c1ccc(F)cc1 (single isomer, unassigned) [Example 76]	0.0179
C[C@@H]1CCCN(Cc2cc(F)c(S(=O)(=O)Nc3ncns3)cc2F)[C@@H]1c1ccccc1 (single isomer, unassigned) [Example 23]	0.366
O=S(=O)(Nc1ncns1)c1cc2c(cc1F)C(N1CCC(C(F)(F)F)CC1c1ccc(F)cc1)CCO2 (racemic) [Example 88, 6-fluoro-4-(cis-2-(4-fluorophenyl)-4-(trifluoromethyl)piperidin-1-yl)-N-(1,2,4-thiadiazol-5-yl)chromane-7-sulfonamide]	0.00168
O=S(=O)(Nc1nccs1)c1cc2c(cc1F)[C@@H](N1CCCC[C@H]1c1ccccc1)CCO2 (single isomer, unassigned) [Example 90]	0.00862
O=S(=O)(Nc1ncns1)c1ccc2c(c1)OCCC2N1CCOC[C@H]1c1ccccc1 (stereo partly drawn) [Example 75, 4-((R)-3-phenylmorpholino)-N-(1,2,4-thiadiazol-5-yl)chromane-7-sulfonamide]	0.0859
O=S(=O)(Nc1ncns1)c1cc(F)c(CN2CC[C@H](O)C[C@@H]2c2ccccc2)cc1F (single isomer, unassigned) [Example 113]	8.59
O=S(=O)(Nc1ncns1)c1ccc2c(c1)CCC[C@@H]2N1CCCC[C@H]1c1ccccc1 (single isomer, unassigned) [Example 52]	0.269
O=S(=O)(Nc1ncns1)c1ccc2c(c1)CCC2N1CCCCC1c1ccccc1 (single isomer, unassigned) [Example 66, 1-(2-phenylpiperidin-1-yl)-N-(1,2,4-thiadiazol-5-yl)-2,3-dihydro-1H-indene-5-sulfonamide]	0.597
O=S(=O)(Nc1nccs1)c1cc2c(cc1F)[C@H](N1CC[C@@H](C(F)(F)F)C[C@H]1c1ccc(F)cc1)CCO2 (racemic) [Example 93]	0.00333
